From patent publication US20240316043A1, “BROMODOMAIN INHIBITORS FOR CANCER THERAPY” (University of Tennessee Research Foundation, priority 2023, published 2024)
Entries after “also recorded” stand apart in the source; their conditions may differ.

Tests used:
GBM tumors = details: intracranial GBM animal model; cited from earlier work
[1] = system: 12 primary human cell based systems; details: cited from earlier work
LN229 GBM cells = test: γH2Ax immunostaining after TMZ; type: cell-based; set-up: dose or concentration left out as unconfirmed; details: 24 hrs, FIG. 11
Procedure: After treatment for 24 hrs, cells were fixed and immunostained for gH2Ax. Analysis of immunostaining was performed on a laser confocal microscope.
As TMZ is DNA damaging agent, we tested the ability of various bromodomain inhibitors to enhance TMZ-induced DNA damage as evidence by immunostaining of GBM cells with γH2Ax and examination of the staining on a confocal microscope. γH2AX is the phosphorylated version of the histone variant H2Ax and is a highly specific and sensitive marker for monitoring DNA damage initiation and resolution. […] Similar results were obtained with MT330 GBM cells.

MT330 cells = test: γH2Ax immunostaining after bleomycin; type: cell-based; details: FIG. 8
Procedure: After 1 hr of bleomycin treatment cell death, cells were fixed and immunostained for γH2Ax. Analysis of immunostaining was performed on at least 1,000 cells on the Lionheart FX imaging system.
Bleomycin is a chemotherapeutic drug that is used to treat various cancers. […] Thus, the ability of bleomycin to induce DNA damage as evidence by immunostaining of MT330 cells and LN229 with γH2Ax was tested. Quantification of cell staining was determined on the Lionheart FX imaging station.

BRG1/BRM = details: cited from earlier work
MT330 GBM cells = test: Cell death ELISA in MT330 GBM cells; type: cell-based; details: for enhancement of TMZ-induced cell death: 10 mM inhibitor in combination with 200 mM of TMZ
Procedure: Control cells were treated with vehicle (DMSO). Cell death was determined at 72 hr after treatment by a cell death ELISA that quantifies histone-complexed DNA fragments. […]
Parental and BRG1 knockout MT330 cells were treated with bleomycin (0.01 μM) and bromodomain inhibitors […]. After 72 hr, cell death was determined by cell death ELISA.
The biological activity of bromodomain inhibitors was assessed for the ability to enhance TMZ-induced cell death. In brief, MT330 cells were treated with […] of bromodomain inhibitors alone, or in combination with […] of TMZ for 72 hrs, and GBM cell death was determined by a commercial ELISA.

[2] = system: TMZ-sensitive GBM cells and TMZ-resistant GBM cells; details: cited from earlier work
T98G GBM cells [3] = test: Cell death ELISA in TMZ-resistant T98G cells; type: cell-based; details: TMZ (500 μM) and inhibitor (10 μM), 72 hr
Procedure: (§1) After 72 hr, cell death was determined by a commercial cell death ELISA.
(§2) To further test the bioactivity of bromodomain inhibitors, T98G and U87 GBM cell lines were used that are highly resistant to the death inducing activity of TMZ. […] Because of their high TMZ resistance, these cells may serve as cell models for TMZ resistant GBM cancer stem-like cells.

[4] = Tolerability in mice not injected with tumor cells; type: in vivo; details: at the drug doses used
BRM bromodomain = target: T1, BRM bromodomain (Homo sapiens, UniProt P51531); test: Cellular thermal shift assay (CETSA), BRM bromodomain construct in MT330 cells; type: binding; details: FIG. 3
T1 construct: expressed in transfected cells; host or cells: MT330 glioblastoma cells
Procedure: (§3) For the CETSA, MT330 cells expressing the BRM (FIG. 6B), or BRG1 (FIG. 6C) the BRD construct were treated with bromodomain inhibitors […] and immunoblotted as indicated.
(§4) After heating over a temperature range from 44.5° C. to 55.6° C. for 5 min, MT330 cells were lysed and then immunoblotted for BRG1 or BRM.

T98G GBM cells [5] = test: IncuCyte live cell imaging proliferation assay; type: cell-based; details: TMZ (500 μM) plus bromodomain inhibitors (20 μM), FIG. 2
Procedure: T98G GBM cells were treated with TMZ (500 μM), the bromodomain inhibitors (20 μM), and cell proliferation was determined by Incucyte live cell assays using cellular confluence method. The data was normalized to the calculated cell confluence at day 0. Control cells were treated with vehicle (DMSO).
To further characterize the biological activity of selected bromodomain inhibitors, YH-IV-129, YH-IV-181 and YH-IV-191, IncuCyte live cell imaging proliferation assays were performed with the highly TMZ-resistant T98G GBM cell line.

[6] = system: intracranial GBM xenografts (MT330 cells); test: Orthotopic GBM model, MT330 cells injected into brains of NSG mice; type: in vivo
Procedure: MT330 cells (10^6) were injected into the brains of NSG female mice. After tumors were identified by BLI (˜10 days post-injection), mice were IP injected with TMZ (60 mg/Kg body weight) or IV-129 (10 mg/Kg) alone or in combination 3 times per week (5 mice per group) for 2 weeks. […] FIG. 5C Kaplan-Meier analysis of the survival data (5 mice/group) of the brain tumor-bearing mice was performed.
MT330 cells […] were injected into the brains of NSG female mice. After tumors were identified by BLI (˜10 days post-injection), mice were IP injected with TMZ (10 mg/Kg body weight), IV-255 or IV-275 (20 mg/Kg) alone or in combination 3 times per week (5 mice/group).
Luciferase-expressing MT330 cells were injected into the brains of immunocompromised NSG mice. Once tumors were identified by bioluminescence imaging (BLI) at ˜10 days after tumor cell injection, mice were subjected to intraperitoneal injection of TMZ or YH-IV-129 alone, or in combination. At 20 days after initiation of treatment, live animal imaging was performed on an IVIS Lumina instrument. […] The mean survival of control mice was 27 days after cell injection (FIG. 5C).
Luciferase-expressing MT330 cells were injected into the brains of immunocompromised NSG mice. Once tumors were identified by bioluminescence imaging (BLI) at ˜10 days after tumor cell injection, mice were subjected to intraperitoneal injection of TMZ or YH-IV-255 or YH-IV-275 alone, or in combination. […] This is compelling preliminary evidence that these two new compounds have potent anticancer activity in intracranial GBM xenografts when combined with standard-of-care TMZ chemotherapy and that these drugs cross the blood-brain barrier.

U87 GBM cells = test: Cell death ELISA in TMZ-resistant U87 cells; type: cell-based; details: U87, TMZ (500 μM) and inhibitor (10 μM), 72 hr, FIG. 4
Procedure: as §1, §2

BRG1 bromodomain = target: T2, BRG1 bromodomain (Homo sapiens, UniProt P51532); test: Cellular thermal shift assay (CETSA), BRG1 bromodomain construct in MT330 cells; type: binding; details: FIG. 3
T2 construct: expressed in transfected cells; host or cells: MT330 glioblastoma cells
Procedure: After heating over a temperature range from 44.5° C. to 55.6° C. for 5 min, the cells were lysed, placed on ice at 4° C. and then immunoblotted for BRG1 or actin.
as §3, §4

[7] = vehicle control band disappearing at 49.8° C.

T2 sequence (P51532 1453-1564 limits assumed): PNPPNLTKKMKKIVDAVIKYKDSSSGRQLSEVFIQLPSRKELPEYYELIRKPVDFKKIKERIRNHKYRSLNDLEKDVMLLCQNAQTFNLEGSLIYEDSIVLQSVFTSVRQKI
T1 sequence (P51531 1378-1506 limits assumed): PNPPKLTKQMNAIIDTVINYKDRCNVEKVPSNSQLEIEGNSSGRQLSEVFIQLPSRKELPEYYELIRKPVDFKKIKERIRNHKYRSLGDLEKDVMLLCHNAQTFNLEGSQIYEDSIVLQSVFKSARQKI

For O=C(/C=C/N1C[C@H]2C[C@@H]1CN2c1ccccn1)c1ccccc1O [PFI-3], the “survival of animals bearing GBM tumors treated with TMZ” value (GBM tumors) is given as “increase in survival”, the “inhibitory effects against a range of cellular endpoints” value [1] is given as “inhibitory effects were not observed” and the “γH2Ax staining, inhibitor with TMZ” value (LN229 GBM cells) is given as “marked increase in γH2Ax staining”. For the same compound, the “γH2Ax staining, PFI-3 alone” value (MT330 cells; PFI-3 (5 μM) alone) was “no effect on γH2Ax staining”, the “γH2Ax staining, PFI-3 pretreatment followed by bleomycin” value (MT330 cells; pretreated for 1 hr with PFI-3 (5 μM) followed by bleomycin (0.5 and 2 μM)) was “increased number of both γH2Ax positive cells and signal intensity of staining; also recorded: sensitized GBM cells to DNA damage induced by Bleomycin” and the Kd (BRG1/BRM) was under 100 nM. For the same compound, the “enhancement of TMZ-induced cell death” value (MT330 GBM cells; 72 hrs, FIG. 1) was “markedly increased the sensitivity of GBM cells to TMZ-induced cell death”, the “cell death, inhibitor alone” value (MT330 GBM cells; 10 mM of bromodomain inhibitors alone, 72 hrs, FIG. 1) was “did not induce cell death” and the “enhancement of antiproliferation activity and cell death-inducing effects of TMZ” value [2] was “enhanced the antiproliferation activity and cell death-inducing effects of temozolomide”.

For COc1ccc(N2C[C@H]3C[C@@H]2CN3C(=O)OC(C)(C)C)cc1 [YH-IV-129, (1R,4R)-tert-butyl 5-(4-methoxyphenyl)-2,5-diazabicyclo[2.2.1]heptane-2-carboxylate], the “sensitization to cell-death inducing effects of TMZ” value (T98G GBM cells [3]; FIG. 4) was “much more potent than PFI-3”, the “sensitization to cell-death inducing effects of TMZ” value (T98G GBM cells [3]; FIG. 4, listed as IV-129) was “more potent than PFI-3 as a chemosensitizer to TMZ” and the “adverse effects on health, behavior or weight” value [4] was “no adverse effects on the health, behavior or weight of mice”. For the same compound, the “thermostability of the BRM BRD” value (BRM bromodomain; heating 44.5° C. to 55.6° C. for 5 min, immunoblot) was “significantly increased the thermostability”, the “temperature at which the BRM BRD protein band is undetectable” value (BRM bromodomain; [7]) was 54.20 °C and the “sensitization to the antiproliferative action of TMZ” value (T98G GBM cells [5]) was “potently sensitized T98G GBM cells to the antiproliferative action of TMZ”. The “mean survival, combination with TMZ” value ([6]; TMZ (60 mg/Kg) and IV-129 (10 mg/Kg) IP, control mice 27 days after cell injection, FIG. 5C) was 48 days, the “mean survival, either agent alone” value ([6]; TMZ (60 mg/Kg) or IV-129 (10 mg/Kg) alone IP, control mice 27 days, FIG. 5C) was 35 days and the “tumor size by bioluminescence (BLI)” value ([6]; combination with TMZ (60 mg/Kg) and IV-129 (10 mg/Kg) IP 3 times per week for 2 weeks, 20 days after treatment, versus either agent alone) was “much smaller tumors”. The weight loss ([6]; combination with TMZ, 20 days post-treatment, versus either agent alone, FIG. 5B) was “weight loss was much lower”, the “crossing of the blood-brain barrier” value ([6]; inferred from activity in intracranial GBM xenografts) was “crosses the blood-brain barrier” and the “sensitization to cell-death inducing effects of TMZ” value (U87 GBM cells) was “much more potent than PFI-3”. For the same compound, the “sensitization to cell-death inducing effects of TMZ” value (U87 GBM cells; listed as IV-129) was “more potent than PFI-3 as a chemosensitizer to TMZ”, the “enhancement of TMZ-induced cell death” value (MT330 GBM cells; 72 hrs, FIG. 1) was “better efficacy than PFI-3; also recorded: markedly enhanced TMZ sensitivity of GBM cells in vitro” and the “enhancement of bleomycin-induced cell death” value (MT330 GBM cells; bleomycin (0.01 μM) and bromodomain inhibitors (10 μM), 72 hr, FIG. 9) was “sensitized GBM cells to bleomycin-induced cell death”. The “cell death, inhibitor alone” value (MT330 GBM cells; bromodomain inhibitors (10 μM) alone, 72 hr, FIG. 9) was “none of the bromodomain inhibitors (YH-IV-129, YH-IV-255 and YH-IV-275) alone had any death inducing activity”, the “thermostability of the BRG1 BRD” value (BRG1 bromodomain; 30 μM, heating 44.5° C. to 55.6° C. for 5 min, immunoblot) was “significantly increased the thermostability” and the “temperature at which the BRG1 BRD protein band is undetectable” value (BRG1 bromodomain; [7]) was 54.20 °C.
